Where “and” joins values, the source holds several entries; their conditions need not be identical. Equal values may be shown once.
Organism: Rattus norvegicus
Assay: DrugMatrix - Regimen: Daily Repeat
Type: toxicity, organism-based, Sprague-Dawley
Design: regimen Daily Repeat, gender Male, age 6-8 weeks
Details: in vivo, po, route oral GAVAGE, vehicle .5 % CMC; for BASOPHIL / EOSINOPHIL / ERYTHROCYTE COUNT / HEMATOCRIT / HEMOGLOBIN / LEUKOCYTE COUNT / LYMPHOCYTE / MEAN CORPUSCULAR HEMOGLOBIN / MEAN CORPUSCULAR HEMOGLOBIN CONCENTRATION / MEAN CORPUSCULAR VOLUME / MONOCYTE / NEUTROPHIL / PLATELET COUNT / ABSOLUTE BASOPHIL / ABSOLUTE EOSINOPHIL / ABSOLUTE LYMPHOCYTE / ABSOLUTE MONOCYTE / ABSOLUTE SEGMENTED NEUTROPHIL: tissue Blood; for ALANINE AMINOTRANSFERASE / ALBUMIN / ALKALINE PHOSPHATASE / ASPARTATE AMINOTRANSFERASE / BLOOD UREA NITROGEN / CHLORIDE / CHOLESTEROL / CREATINE PHOSPHOKINASE / CREATININE / GLUCOSE / PHOSPHORUS / POTASSIUM / SODIUM / TOTAL BILIRUBIN / TOTAL PROTEIN / LACTATE DEHYDROGENASE / LIPASE / URIC ACID: tissue Plasma
[1] = 0 mg/kg, 72 h, dose level Control, time 3 day
[2] = 0 mg/kg, 120 h, dose level Control, time 5 day
[3] = 0 mg/kg, 2184 h, dose level Control, time 91 day
[4] = 0 mg/kg, […], dose level Control, time 28 day
[5] = 0.0007 mg/kg, 120 h, dose level Low, time 5 day
[6] = 0.0007 mg/kg, 2184 h, dose level Low, time 91 day

SMILES: Clc1cc2c(cc1Cl)Oc1cc(Cl)c(Cl)cc1O2 [2,3,7,8-TETRACHLORODIBENZO-P-DIOXIN]
- BASOPHIL [1]: 0.52%
- EOSINOPHIL [1]: 0.48%
- ERYTHROCYTE COUNT [1]: 6.68 x10E6/uL
- HEMATOCRIT [1]: 43.07%
- HEMOGLOBIN [1]: 13.48 G/DL
- LEUKOCYTE COUNT [1]: 11.41 x10E3/uL
- LYMPHOCYTE [1]: 80.78%
- MEAN CORPUSCULAR HEMOGLOBIN [1]: 20.2 pg
- MEAN CORPUSCULAR HEMOGLOBIN CONCENTRATION [1]: 31.32 G/DL
- MEAN CORPUSCULAR VOLUME [1]: 64.45 fL
- MONOCYTE [1]: 2.23%
- NEUTROPHIL [1]: 14.73%
- PLATELET COUNT [1]: 1225.83 x10E3/uL
- ALANINE AMINOTRANSFERASE [1]: 44.5 u/L
- ALBUMIN [1]: 3.62 G/DL
- ALKALINE PHOSPHATASE [1]: 404.5 u/L
- ASPARTATE AMINOTRANSFERASE [1]: 71.67 u/L
- BLOOD UREA NITROGEN [1]: 15 mg/dL
- CHLORIDE [1]: 103 MEQ/L
- CHOLESTEROL [1]: 96.83 mg/dL
- CREATINE PHOSPHOKINASE [1]: 236 u/L
- CREATININE [1]: 0.43 mg/dL
- GLUCOSE [1]: 186.83 mg/dL
- PHOSPHORUS [1]: 12.67 mg/dL
- POTASSIUM [1]: 7.1 MEQ/L
- SODIUM [1]: 147.33 MEQ/L
- TOTAL BILIRUBIN [1]: 0.52 mg/dL
- TOTAL PROTEIN [1]: 6.18 G/DL
- ABSOLUTE BASOPHIL [2]: 92 cells/µL
- ABSOLUTE EOSINOPHIL [2]: 52 cells/µL
- ABSOLUTE LYMPHOCYTE [2]: 6560 cells/µL
- ABSOLUTE MONOCYTE [2]: 160 cells/µL
- ABSOLUTE SEGMENTED NEUTROPHIL [2]: 1130 cells/µL
- BASOPHIL [2]: 1.14% and 0.92%
- EOSINOPHIL [2]: 0.68% and 0.43%
- ERYTHROCYTE COUNT [2]: 7.51 x10E6/uL and 7.03 x10E6/uL
- HEMATOCRIT [2]: 46.04% and 46.55%
- HEMOGLOBIN [2]: 15.62 G/DL and 14.32 G/DL
- LEUKOCYTE COUNT [2]: 8.03 x10E3/uL and 12.22 x10E3/uL
- LYMPHOCYTE [2]: 81.54% and 82.65%
- MEAN CORPUSCULAR HEMOGLOBIN [2]: 20.84 pg and 20.35 pg
- MEAN CORPUSCULAR HEMOGLOBIN CONCENTRATION [2]: 33.94 G/DL and 30.77 G/DL
- MEAN CORPUSCULAR VOLUME [2]: 61.42 fL and 66.28 fL
- MONOCYTE [2]: 2% and 2.28%
- NEUTROPHIL [2]: 14.24% and 12.73%
- PLATELET COUNT [2]: 1427.2 x10E3/uL and 1268.67 x10E3/uL
- ALANINE AMINOTRANSFERASE [2]: 35.6 u/L and 44.5 u/L
- ALBUMIN [2]: 3.64 G/DL and 3.73 G/DL
- ALKALINE PHOSPHATASE [2]: 233 u/L and 340.83 u/L
- ASPARTATE AMINOTRANSFERASE [2]: 81 u/L and 66.5 u/L
- BLOOD UREA NITROGEN [2]: 12 mg/dL and 13.33 mg/dL
- CHLORIDE [2]: 109.4 MEQ/L and 102.17 MEQ/L
- CHOLESTEROL [2]: 47.6 mg/dL and 82.17 mg/dL
- CREATINE PHOSPHOKINASE [2]: 183.2 u/L and 146.67 u/L
- CREATININE [2]: 0.4 mg/dL and 0.35 mg/dL
- GLUCOSE [2]: 134.6 mg/dL and 186.17 mg/dL
- LACTATE DEHYDROGENASE [2]: 89.4 u/L
- LIPASE [2]: 17.2 u/L
- PHOSPHORUS [2]: 13.02 mg/dL and 11.83 mg/dL
- POTASSIUM [2]: 7 MEQ/L and 6.47 MEQ/L
- SODIUM [2]: 149.6 MEQ/L and 148.83 MEQ/L
- TOTAL PROTEIN [2]: 6.06 G/DL and 6.27 G/DL
- URIC ACID [2]: 1.04 mg/dL
- ABSOLUTE BASOPHIL [3]: 130 cells/µL
- ABSOLUTE EOSINOPHIL [3]: 70 cells/µL
- ABSOLUTE LYMPHOCYTE [3]: 8670 cells/µL
- ABSOLUTE MONOCYTE [3]: 160 cells/µL
- ABSOLUTE SEGMENTED NEUTROPHIL [3]: 1530 cells/µL
- BASOPHIL [3]: 1.13%
- EOSINOPHIL [3]: 0.66%
- ERYTHROCYTE COUNT [3]: 9.13 x10E6/uL
- HEMATOCRIT [3]: 48.47%
- HEMOGLOBIN [3]: 16.56 G/DL
- LEUKOCYTE COUNT [3]: 10.5 x10E3/uL
- LYMPHOCYTE [3]: 81.63%
- MEAN CORPUSCULAR HEMOGLOBIN [3]: 18.16 pg
- MEAN CORPUSCULAR HEMOGLOBIN CONCENTRATION [3]: 34.14 G/DL
- MEAN CORPUSCULAR VOLUME [3]: 53.14 fL
- MONOCYTE [3]: 1.53%
- NEUTROPHIL [3]: 14.71%
- PLATELET COUNT [3]: 1280.22 x10E3/uL
- ALANINE AMINOTRANSFERASE [3]: 28.89 u/L
- ALBUMIN [3]: 3.69 G/DL
- ALKALINE PHOSPHATASE [3]: 101.11 u/L
- ASPARTATE AMINOTRANSFERASE [3]: 70.67 u/L
- BLOOD UREA NITROGEN [3]: 16.78 mg/dL
- CHLORIDE [3]: 104.56 MEQ/L
- CHOLESTEROL [3]: 58.78 mg/dL
- CREATINE PHOSPHOKINASE [3]: 91.22 u/L
- CREATININE [3]: 0.61 mg/dL
- GLUCOSE [3]: 142.33 mg/dL
- LACTATE DEHYDROGENASE [3]: 81.67 u/L
- LIPASE [3]: 13 u/L
- PHOSPHORUS [3]: 7.54 mg/dL
- POTASSIUM [3]: 6.27 MEQ/L
- SODIUM [3]: 149.89 MEQ/L
- TOTAL BILIRUBIN [3]: 0.19 mg/dL
- TOTAL PROTEIN [3]: 7.12 G/DL
- URIC ACID [3]: 0.97 mg/dL
- ABSOLUTE BASOPHIL [4]: 150 cells/µL
- ABSOLUTE EOSINOPHIL [4]: 54 cells/µL
- ABSOLUTE LYMPHOCYTE [4]: 8890 cells/µL
- ABSOLUTE MONOCYTE [4]: 190 cells/µL
- ABSOLUTE SEGMENTED NEUTROPHIL [4]: 2250 cells/µL
- BASOPHIL [4]: 1.26%
- EOSINOPHIL [4]: 0.46%
- ERYTHROCYTE COUNT [4]: 8.34 x10E6/uL
- HEMATOCRIT [4]: 48.66%
- HEMOGLOBIN [4]: 16.04 G/DL
- LEUKOCYTE COUNT [4]: 11.58 x10E3/uL
- LYMPHOCYTE [4]: 76.74%
- MEAN CORPUSCULAR HEMOGLOBIN [4]: 19.2 pg
- MEAN CORPUSCULAR HEMOGLOBIN CONCENTRATION [4]: 32.92 G/DL
- MEAN CORPUSCULAR VOLUME [4]: 58.32 fL
- MONOCYTE [4]: 1.76%
- NEUTROPHIL [4]: 19.44%
- PLATELET COUNT [4]: 1282.6 x10E3/uL
- ALANINE AMINOTRANSFERASE [4]: 27 u/L
- ALBUMIN [4]: 3.68 G/DL
- ALKALINE PHOSPHATASE [4]: 146.2 u/L
- ASPARTATE AMINOTRANSFERASE [4]: 66.6 u/L
- BLOOD UREA NITROGEN [4]: 12.4 mg/dL
- CHLORIDE [4]: 104.6 MEQ/L
- CHOLESTEROL [4]: 59.6 mg/dL
- CREATINE PHOSPHOKINASE [4]: 121.8 u/L
- CREATININE [4]: 0.6 mg/dL
- GLUCOSE [4]: 143 mg/dL
- LACTATE DEHYDROGENASE [4]: 87.8 u/L
- LIPASE [4]: 17.4 u/L
- PHOSPHORUS [4]: 8.68 mg/dL
- POTASSIUM [4]: 6.02 MEQ/L
- SODIUM [4]: 152.8 MEQ/L
- TOTAL BILIRUBIN [4]: 0.26 mg/dL
- TOTAL PROTEIN [4]: 6.92 G/DL
- URIC ACID [4]: 0.52 mg/dL
- ABSOLUTE BASOPHIL [5]: 72 cells/µL
- ABSOLUTE EOSINOPHIL [5]: 44 cells/µL
- ABSOLUTE LYMPHOCYTE [5]: 8990 cells/µL
- ABSOLUTE MONOCYTE [5]: 220 cells/µL
- ABSOLUTE SEGMENTED NEUTROPHIL [5]: 1360 cells/µL
- BASOPHIL [5]: 0.68%
- EOSINOPHIL [5]: 0.38%
- ERYTHROCYTE COUNT [5]: 7.39 x10E6/uL
- HEMATOCRIT [5]: 46.1%
- HEMOGLOBIN [5]: 15.68 G/DL
- LEUKOCYTE COUNT [5]: 10.75 x10E3/uL
- LYMPHOCYTE [5]: 83.64%
- MEAN CORPUSCULAR HEMOGLOBIN [5]: 21.26 pg
- MEAN CORPUSCULAR HEMOGLOBIN CONCENTRATION [5]: 34.02 G/DL
- MEAN CORPUSCULAR VOLUME [5]: 62.42 fL
- MONOCYTE [5]: 2.06%
- NEUTROPHIL [5]: 12.68%
- PLATELET COUNT [5]: 1506.2 x10E3/uL
- ALANINE AMINOTRANSFERASE [5]: 30.8 u/L
- ALBUMIN [5]: 3.64 G/DL
- ALKALINE PHOSPHATASE [5]: 238.8 u/L
- ASPARTATE AMINOTRANSFERASE [5]: 76.4 u/L
- BLOOD UREA NITROGEN [5]: 11.4 mg/dL
- CHLORIDE [5]: 107.8 MEQ/L
- CHOLESTEROL [5]: 61.4 mg/dL
- CREATINE PHOSPHOKINASE [5]: 181.6 u/L
- CREATININE [5]: 0.5 mg/dL
- GLUCOSE [5]: 115 mg/dL
- LACTATE DEHYDROGENASE [5]: 69.6 u/L
- LIPASE [5]: 31.8 u/L
- PHOSPHORUS [5]: 11.8 mg/dL
- POTASSIUM [5]: 6.66 MEQ/L
- SODIUM [5]: 150.8 MEQ/L
- TOTAL BILIRUBIN [5]: 0.14 mg/dL
- TOTAL PROTEIN [5]: 6.08 G/DL
- URIC ACID [5]: 0.72 mg/dL
- ABSOLUTE BASOPHIL [6]: 270 cells/µL
- ABSOLUTE EOSINOPHIL [6]: 140 cells/µL
- ABSOLUTE LYMPHOCYTE [6]: 10000 cells/µL
- ABSOLUTE MONOCYTE [6]: 280 cells/µL
- ABSOLUTE SEGMENTED NEUTROPHIL [6]: 2090 cells/µL
- BASOPHIL [6]: 2.13%

Source: ChEMBL document CHEMBL3885881, “DrugMatrix”
